{
  "source": "patent US20250129062A1",
  "about": "“AMORPHOUS SUBSTANCES, CRYSTALS, PHARMACEUTICAL COMPOSITIONS, PREPARATION METHODS AND USES OF THIOHYDANTOIN COMPOUND OR PHARMACEUTICALLY ACCEPTABLE SALT THEREOF” (SUZHOU KINTOR PHARMACEUTICALS, INC., priority 2021, published 2025)",
  "test": "Solubility of amorphous substance in solvent systems (supersaturated solution, oscillated 24 h at room temperature, HPLC)",
  "type": "physicochemical",
  "settings": "for solubility at 24 h: thermodynamic from solid",
  "method": "The amorphous substance of the compound of formula I was prepared into supersaturated solutions with different solvents, and oscillated under a room temperature condition (a constant temperature). After oscillating for 24 h, sampling was performed, and the content of the sample was detected by HPLC under condition 1.\nCondition 1: • Chromatographic column: C18 (150 mm×4.6 mm×3.5 μm); • Mobile phase: binary mobile phase system, mobile phase A was 0.1% formic acid in water, mobile phase B was acetonitrile; • Elution time: 68 min; • Elution mode: gradient elution (in the gradient elution process, mobile phase A had the maximum volume percentage of 95% and the minimum volume percentage of 10%); • Detection wavelength: 270 nm.",
  "note": "Like-named read-outs stand apart in the source and are kept apart here.",
  "data": [
    {"smiles": "Cc1ncsc1-c1ccc(CNC(=O)[C@@H]2C[C@@H](O)CN2C(=O)[C@@H](NC(=O)COCCCCOc2ccc(-c3ccc(N4C(=S)N(c5ccc(C#N)c(C(F)(F)F)c5F)C(=O)C4(C)C)cn3)cc2)C(C)(C)C)cc1", "values": [
      {"measurement": "solubility at 24 h", "setting": "dehydrated alcohol-propylene glycol-water solvent mixture, aqueous with cosolvent or surfactant or cyclodextrin, Dehydrated alcohol 30%-propylene glycol 20%-water 50% (w/w), read-out: Solubility", "result": 2520, "unit": "µg/mL"},
      {"measurement": "solubility at 24 h", "setting": "dehydrated alcohol-propylene glycol-water solvent mixture, aqueous with cosolvent or surfactant or cyclodextrin, Dehydrated alcohol 30%-propylene glycol 30%-water 40% (w/w), read-out: Solubility", "result": 6390, "unit": "µg/mL"},
      {"measurement": "solubility at 24 h", "setting": "dehydrated alcohol-propylene glycol-water solvent mixture, aqueous with cosolvent or surfactant or cyclodextrin, Dehydrated alcohol 30%-propylene glycol 40%-water 30% (w/w), read-out: Solubility", "result": 25200, "unit": "µg/mL"},
      {"measurement": "solubility at 24 h", "setting": "dehydrated alcohol-propylene glycol-water solvent mixture, aqueous with cosolvent or surfactant or cyclodextrin, Dehydrated alcohol 30%-propylene glycol 50%-water 20% (w/w), read-out: Solubility", "result": "> 178000", "unit": "µg/mL"},
      {"measurement": "solubility at 24 h", "setting": "dehydrated alcohol-propylene glycol-water solvent mixture, aqueous with cosolvent or surfactant or cyclodextrin, Dehydrated alcohol 35%-propylene glycol 35%-water 30% (w/w), read-out: Solubility", "result": 52300, "unit": "µg/mL"},
      {"measurement": "solubility at 24 h", "setting": "dehydrated alcohol-propylene glycol-water solvent mixture, aqueous with cosolvent or surfactant or cyclodextrin, Dehydrated alcohol 35%-propylene glycol 40%-water 25% (w/w), read-out: Solubility", "result": 62700, "unit": "µg/mL"},
      {"measurement": "solubility at 24 h", "setting": "dehydrated alcohol-propylene glycol-water solvent mixture, aqueous with cosolvent or surfactant or cyclodextrin, Dehydrated alcohol 35%-propylene glycol 50%-water 15% (w/w), read-out: Solubility", "result": "> 189000", "unit": "µg/mL"},
      {"measurement": "solubility at 24 h", "setting": "dehydrated alcohol-propylene glycol-water solvent mixture, aqueous with cosolvent or surfactant or cyclodextrin, Dehydrated alcohol 40%-propylene glycol 10%-water 50% (w/w), read-out: Solubility", "result": 3020, "unit": "µg/mL"},
      {"measurement": "solubility at 24 h", "setting": "dehydrated alcohol-propylene glycol-water solvent mixture, aqueous with cosolvent or surfactant or cyclodextrin, Dehydrated alcohol 40%-propylene glycol 20%-water 40% (w/w), read-out: Solubility", "result": 19500, "unit": "µg/mL"},
      {"measurement": "solubility at 24 h", "setting": "dehydrated alcohol-propylene glycol-water solvent mixture, aqueous with cosolvent or surfactant or cyclodextrin, Dehydrated alcohol 40%-propylene glycol 30%-water 30% (w/w), read-out: Solubility", "result": 49800, "unit": "µg/mL"},
      {"measurement": "solubility at 24 h", "setting": "dehydrated alcohol-propylene glycol-water solvent mixture, aqueous with cosolvent or surfactant or cyclodextrin, Dehydrated alcohol 40%-propylene glycol 40%-water 20% (w/w), read-out: Solubility", "result": "> 97600", "unit": "µg/mL"},
      {"measurement": "solubility at 24 h", "setting": "dehydrated alcohol-propylene glycol-water solvent mixture, aqueous with cosolvent or surfactant or cyclodextrin, Dehydrated alcohol 50%-propylene glycol 10%-water 40% (w/w), read-out: Solubility", "result": 77700, "unit": "µg/mL"},
      {"measurement": "solubility at 24 h", "setting": "dehydrated alcohol-propylene glycol-water solvent mixture, aqueous with cosolvent or surfactant or cyclodextrin, Dehydrated alcohol 50%-propylene glycol 20%-water 30% (w/w), read-out: Solubility", "result": "> 77500", "unit": "µg/mL"},
      {"measurement": "solubility at 24 h", "setting": "dehydrated alcohol-propylene glycol-water solvent mixture, aqueous with cosolvent or surfactant or cyclodextrin, Dehydrated alcohol 50%-propylene glycol 30%-water 20% (w/w), read-out: Solubility", "result": "> 69300", "unit": "µg/mL"},
      {"measurement": "solubility at 24 h", "setting": "dehydrated alcohol-propylene glycol-water solvent mixture, aqueous with cosolvent or surfactant or cyclodextrin, Dehydrated alcohol 50%-propylene glycol 40%-water 10% (w/w), read-out: Solubility", "result": "> 67800", "unit": "µg/mL"},
      {"measurement": "solubility at 24 h", "setting": "dehydrated alcohol-propylene glycol-water solvent mixture, organic solvent or mixture, Dehydrated alcohol 50%-propylene glycol 50%-water 00% (w/w), read-out: Solubility", "result": "> 96000", "unit": "µg/mL"},
      {"measurement": "solubility at 24 h", "setting": "glycerin, organic solvent or mixture, solvent: Glycerin, read-out: 24 h solubility", "result": 440, "unit": "µg/mL"},
      {"measurement": "solubility at 24 h", "setting": "liquid paraffin, oil or lipid, solvent: Liquid paraffin, read-out: 24 h solubility", "result": 10, "unit": "µg/mL"},
      {"measurement": "solubility at 24 h", "setting": "oleic acid, oil or lipid, solvent: Oleic acid, read-out: 24 h solubility", "result": 1410, "unit": "µg/mL"},
      {"measurement": "solubility at 24 h", "setting": "polyethylene glycol 400 (PEG400), organic solvent or mixture, solvent: Polyethylene glycol 400 (PEG400), read-out: 24 h solubility", "result": 16000, "unit": "µg/mL"},
      {"measurement": "solubility at 24 h", "setting": "propylene glycol, organic solvent or mixture, solvent: Propylene glycol, read-out: 24 h solubility", "result": 12000, "unit": "µg/mL"},
      {"measurement": "solubility at 24 h", "setting": "solvent mixture, aqueous with cosolvent or surfactant or cyclodextrin, Dehydrated alcohol 10%-PEG400 30%-water 60% (w/w), read-out: Solubility", "result": 60, "unit": "µg/mL"},
      {"measurement": "solubility at 24 h", "setting": "solvent mixture, aqueous with cosolvent or surfactant or cyclodextrin, Dehydrated alcohol 10%-PEG400 40%-water 50% (w/w), read-out: Solubility", "result": 280, "unit": "µg/mL"},
      {"measurement": "solubility at 24 h", "setting": "solvent mixture, aqueous with cosolvent or surfactant or cyclodextrin, Dehydrated alcohol 10%-glycerin 10%-water 80% (w/w), read-out: Solubility", "result": "< 100", "unit": "µg/mL"},
      {"measurement": "solubility at 24 h", "setting": "solvent mixture, aqueous with cosolvent or surfactant or cyclodextrin, Dehydrated alcohol 10%-glycerin 20%-water 70% (w/w), read-out: Solubility", "result": "< 100", "unit": "µg/mL"},
      {"measurement": "solubility at 24 h", "setting": "solvent mixture, aqueous with cosolvent or surfactant or cyclodextrin, Dehydrated alcohol 10%-glycerin 30%-water 60% (w/w), read-out: Solubility", "result": "< 100", "unit": "µg/mL"},
      {"measurement": "solubility at 24 h", "setting": "solvent mixture, aqueous with cosolvent or surfactant or cyclodextrin, Dehydrated alcohol 20%-glycerin 10%-water 70% (w/w), read-out: Solubility", "result": "< 100", "unit": "µg/mL"},
      {"measurement": "solubility at 24 h", "setting": "solvent mixture, aqueous with cosolvent or surfactant or cyclodextrin, Dehydrated alcohol 20%-glycerin 20%-water 60% (w/w), read-out: Solubility", "result": "< 100", "unit": "µg/mL"},
      {"measurement": "solubility at 24 h", "setting": "solvent mixture, aqueous with cosolvent or surfactant or cyclodextrin, Dehydrated alcohol 20%-glycerin 30%-water 50% (w/w), read-out: Solubility", "result": "< 100", "unit": "µg/mL"},
      {"measurement": "solubility at 24 h", "setting": "solvent mixture, aqueous with cosolvent or surfactant or cyclodextrin, Dehydrated alcohol 20%-glycerin 40%-water 40% (w/w), read-out: Solubility", "result": "< 100", "unit": "µg/mL"},
      {"measurement": "solubility at 24 h", "setting": "solvent mixture, aqueous with cosolvent or surfactant or cyclodextrin, Dehydrated alcohol 20%-glycerin 50%-water 30% (w/w), read-out: Solubility", "result": "< 100", "unit": "µg/mL"},
      {"measurement": "solubility at 24 h", "setting": "solvent mixture, aqueous with cosolvent or surfactant or cyclodextrin, Dehydrated alcohol 30%-glycerin 10%-water 60% (w/w), read-out: Solubility", "result": 80, "unit": "µg/mL"},
      {"measurement": "solubility at 24 h", "setting": "solvent mixture, aqueous with cosolvent or surfactant or cyclodextrin, Dehydrated alcohol 30%-glycerin 20%-water 50% (w/w), read-out: Solubility", "result": 140, "unit": "µg/mL"},
      {"measurement": "solubility at 24 h", "setting": "solvent mixture, aqueous with cosolvent or surfactant or cyclodextrin, Dehydrated alcohol 30%-glycerin 30%-water 40% (w/w), read-out: Solubility", "result": 650, "unit": "µg/mL"},
      {"measurement": "solubility at 24 h", "setting": "solvent mixture, aqueous with cosolvent or surfactant or cyclodextrin, Dehydrated alcohol 30%-glycerin 40%-water 30% (w/w), read-out: Solubility", "result": 2260, "unit": "µg/mL"},
      {"measurement": "solubility at 24 h", "setting": "solvent mixture, aqueous with cosolvent or surfactant or cyclodextrin, Dehydrated alcohol 30%-glycerin 50%-water 20% (w/w), read-out: Solubility", "result": 4080, "unit": "µg/mL"},
      {"measurement": "solubility at 24 h", "setting": "solvent mixture, aqueous with cosolvent or surfactant or cyclodextrin, Dehydrated alcohol 40%-glycerin 10%-water 50% (w/w), read-out: Solubility", "result": 1580, "unit": "µg/mL"},
      {"measurement": "solubility at 24 h", "setting": "solvent mixture, aqueous with cosolvent or surfactant or cyclodextrin, Dehydrated alcohol 40%-glycerin 20%-water 40% (w/w), read-out: Solubility", "result": 3400, "unit": "µg/mL"},
      {"measurement": "solubility at 24 h", "setting": "solvent mixture, aqueous with cosolvent or surfactant or cyclodextrin, Dehydrated alcohol 40%-glycerin 30%-water 30% (w/w), read-out: Solubility", "result": 8840, "unit": "µg/mL"},
      {"measurement": "solubility at 24 h", "setting": "solvent mixture, aqueous with cosolvent or surfactant or cyclodextrin, Dehydrated alcohol 40%-glycerin 40%-water 20% (w/w), read-out: Solubility", "result": 14700, "unit": "µg/mL"},
      {"measurement": "solubility at 24 h", "setting": "solvent mixture, aqueous with cosolvent or surfactant or cyclodextrin, Dehydrated alcohol 40%-glycerin 50%-water 10% (w/w), read-out: Solubility", "result": 40000, "unit": "µg/mL"},
      {"measurement": "solubility at 24 h", "setting": "solvent mixture, aqueous with cosolvent or surfactant or cyclodextrin, Dehydrated alcohol 50%-PEG400 10%-water 40% (w/w), read-out: Solubility", "result": 25100, "unit": "µg/mL"},
      {"measurement": "solubility at 24 h", "setting": "solvent mixture, aqueous with cosolvent or surfactant or cyclodextrin, Dehydrated alcohol 50%-PEG400 20%-water 30% (w/w), read-out: Solubility", "result": "> 51500", "unit": "µg/mL"},
      {"measurement": "solubility at 24 h", "setting": "solvent mixture, aqueous with cosolvent or surfactant or cyclodextrin, Dehydrated alcohol 50%-glycerin 10%-water 40% (w/w), read-out: Solubility", "result": 15200, "unit": "µg/mL"},
      {"measurement": "solubility at 24 h", "setting": "solvent mixture, aqueous with cosolvent or surfactant or cyclodextrin, Dehydrated alcohol 50%-glycerin 20%-water 30% (w/w), read-out: Solubility", "result": 23900, "unit": "µg/mL"},
      {"measurement": "solubility at 24 h", "setting": "solvent mixture, aqueous with cosolvent or surfactant or cyclodextrin, Dehydrated alcohol 50%-glycerin 30%-water 20% (w/w), read-out: Solubility", "result": "> 43600", "unit": "µg/mL"},
      {"measurement": "solubility at 24 h", "setting": "solvent mixture, aqueous with cosolvent or surfactant or cyclodextrin, Dehydrated alcohol 50%-glycerin 40%-water 10% (w/w), read-out: Solubility", "result": "> 64600", "unit": "µg/mL"},
      {"measurement": "solubility at 24 h", "setting": "solvent mixture, organic solvent or mixture, Dehydrated alcohol 50%-glycerin 50%-water 00% (w/w), read-out: Solubility", "result": "> 74100", "unit": "µg/mL"},
      {"measurement": "24 h solubility", "setting": "solvent: Dehydrated alcohol", "result": ">54480", "unit": "µg/mL"},
      {"measurement": "24 h solubility", "setting": "solvent: Liquid paraffin, listed as amorphous substance of the compound of formula I", "result": "extremely low"},
      {"measurement": "24 h solubility", "setting": "solvent: Water, listed as amorphous substance of the compound of formula I", "result": "basically insoluble"}
    ]}
  ]
}
